Test results taken from US8895547B2, “Substituted phenyl-oxathiazine derivatives, method for producing them, drugs containing said compounds and the use thereof” (Sanofi, priority 2011, dated 2014).

What follows are compounds tested against T1, human 11β-HSD1 (Homo sapiens, UniProt P28845) (assay: Enzymatic 11beta-HSD1 test (SPA-based detection)). Details: human 11β-HSD1 microsome fraction, [1,2-3H]-cortisone, NADPH, 37° C. 1 hour.
T1 construct: host or cells: microsome fraction
Format: biochemical
Outline: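 Human 11β-HSD1 microsomes (0.2 µg protein) converted [1,2-3H]-cortisone ([…]) for 1 h at 37 °C. The reaction buffer was HEPES/KCl/NaCl/MgCl2 with 0.25 mM NADPH, with compounds added in DMSO. The reaction was stopped with SPA beads, anti-cortisol monoclonal antibody and 0.01 mM SSR110887; after 1 h at room temperature, [3H]-cortisol was scintillation-counted.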

T1 sequence (P28845 whole entry): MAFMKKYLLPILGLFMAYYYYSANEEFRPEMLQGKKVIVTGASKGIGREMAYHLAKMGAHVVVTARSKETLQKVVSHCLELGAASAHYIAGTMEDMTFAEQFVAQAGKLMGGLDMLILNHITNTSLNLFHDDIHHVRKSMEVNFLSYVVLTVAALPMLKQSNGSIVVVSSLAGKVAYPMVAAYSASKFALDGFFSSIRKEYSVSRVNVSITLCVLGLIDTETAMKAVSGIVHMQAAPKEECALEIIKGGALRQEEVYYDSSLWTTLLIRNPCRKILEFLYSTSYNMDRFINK

CC1(C)OC(N[C@@H](CCO)c2ccccc2F)=NS(=O)(=O)[C@H]1c1ccc(-c2ccnc(C(N)=O)c2)cc1 [Example 188, 4-(4-{(S)-2-[(S)-1-(2-fluorophenyl)-3-hydroxy-propylamino]-6,6-dimethyl-4,4-dioxo-5,6-dihydro-4H-4lambda6-[1,4,3]oxathiazin-5-yl}-phenyl)-pyridine-2-carboxamide] and CC1(C)OC(N[C@@H](CCO)c2ccccc2F)=NS(=O)(=O)[C@@H]1c1ccc(-c2ccnc(C(N)=O)c2)cc1 [Example 189, 4-(4-{(R)-2-[(S)-1-(2-fluorophenyl)-3-hydroxy-propylamino]-6,6-dimethyl-4,4-dioxo-5,6-dihydro-4H-4lambda6-[1,4,3]oxathiazin-5-yl}-phenyl)-pyridine-2-carboxamide] are within 1.5-fold of each other in IC50: 7 nM for the first, 5 nM for the second.

First: C[C@H](NC1=NS(=O)(=O)C(c2ccc(-c3ccnc(C#N)c3)nc2)C(C)(C)O1)c1ccccc1F (stereo partly drawn) [Example 190, 5-{2-[(S)-1-(2-fluorophenyl)-ethylamino]-6,6-dimethyl-4,4-dioxo-5,6-dihydro-4H-4lambda6-[1,4,3]oxathiazin-5-yl}-[2,4′]bipyridinyl-2′-carbonitril]
Second: C[C@H](NC1=NS(=O)(=O)C(c2ccc(-c3cnc(N)nc3)cc2)C(C)(C)O1)c1ccccc1F (stereo partly drawn) [Example 196, {5-[4-(2-Amino-pyrimidin-5-yl)-phenyl]-6,6-dimethyl-4,4-dioxo-5,6-dihydro-4H-4lambda6-[1,4,3]oxathiazin-2-yl}-[(S)-1-(2-fluorophenyl)-ethyl]-amine]
The IC50 of the first is 47-fold higher: 331 nM for the first, 7 nM for the second.

Compared with C[C@H](NC1=NS(=O)(=O)C(c2ccc(-c3ccnc(C#N)c3)nc2)C(C)(C)O1)c1ccccc1F (stereo partly drawn) [Example 191, 5-{2-[(S)-1-(2-fluorophenyl)-ethylamino]-6,6-dimethyl-4,4-dioxo-5,6-dihydro-4H-4lambda6-[1,4,3]oxathiazin-5-yl}-[2,4′]bipyridinyl-2′-carbonitril], C[C@H](NC1=NS(=O)(=O)C(c2ccc(-c3ccc4nc(N)sc4c3)cc2)C(C)(C)O1)c1ccccc1F (stereo partly drawn) [Example 195, 6-(4-{2-[(S)-1-(2-fluorophenyl)-ethylamino]-6,6-dimethyl-4,4-dioxo-5,6-dihydro-4H-4lambda6-[1,4,3]oxathiazin-5-yl}-phenyl)-benzothiazol-2-ylamine] is 12-fold lower in IC50: 460 nM for the first, 40 nM for the second.

Going from C[C@H](NC1=NS(=O)(=O)C(c2cccc(C(=O)N3CCOCC3)c2)C(C)(C)O1)c1ccccc1F (stereo partly drawn) [Example 192, (3-{2-[(S)-1-(2-fluorophenyl)-ethylamino]-6,6-dimethyl-4,4-dioxo-5,6-dihydro-4H-4lambda6-[1,4,3]oxathiazin-5-yl}-phenyl)-morpholin-4-yl-methanone] to C[C@H](NC1=NS(=O)(=O)C(c2cccc(C(=O)N3CCCN(C)CC3)c2)C(C)(C)O1)c1ccccc1F (stereo partly drawn) [Example 193, (3-{2-[(S)-1-(2-fluorophenyl)-ethylamino]-6,6-dimethyl-4,4-dioxo-5,6-dihydro-4H-4lambda6-[1,4,3]oxathiazin-5-yl}-phenyl)-(4-methyl-[1,4]diazepan-1-yl)-methanone], the IC50 rises from 252 nM to 476 nM (1.9-fold).

C[C@H](NC1=NS(=O)(=O)C(c2cccc(C(=O)NCc3ccccn3)c2)C(C)(C)O1)c1ccccc1F (stereo partly drawn) [Example 194, 3-{2-[(S)-1-(2-fluorophenyl)-ethylamino]-6,6-dimethyl-4,4-dioxo-5,6-dihydro-4H-4lambda6-[1,4,3]oxathiazin-5-yl}-N-pyridin-2-ylmethyl-benzamide] gave an IC50 of 14 nM.
